In patent US6816257B2, “Method and apparatus for detecting microparticles in fluid samples” (priority 1997, dated 2004):

Test system: B. plicatilis rotifer
Experiment: Rotifer feeding rate toxicity test (fluosphere ingestion measured by laser fluorescence capillary device)
Format: in vivo, Brachionus plicatilis
Method: Water quality monitoring using rotifers was performed using a capillary tube with an internal diameter of 70 μm, a narrow band, 635 nm, 3 mW diode laser with a beam diameter of 40 μm was used. Interference filters were selected to transmit 12% at 670 nm (20 nm FWM), and 10^−6 at all other wavelengths.
1. A live B. plicatilis rotifer culture was obtained from Aqua-Farms, Fla. These rotifers were chosen because they are easy to raise, and the influence of toxic samples on their feeding, reproduction, and death rates have been studied extensively. The average concentration of rotifers in a 100 ml vial was counted using five 20 μl samples examined under a 50× microscope. […]
2. Two samples of 8 ml each were used to make the feeding rate measurements, a reference sample and test sample. These two vials were filled with the 500 rotifers/ml reference solution.
3. A […] diazanon solution was prepared using the rotifer medium solution, so as to maintain water quality parameters such as pH, O2, alkalinity, salinity, and temperature as constant as possible. A 20 μl amount of the diazanon solution was added to test sample.
4. After a 5 minute incubation, 20 μl of a 40×10^6 beads/ml solution of crimson fluospheres was added to both the reference and test samples. The time was noted as t=0.
5. Using two identical syringes connected with a luer union to a 100 μm piece of nylon tubing terminated with a 20 μm plankton filter, a 50 μl sample was extracted from the reference and test samples. In both cases, the organisms were filtered out from the bead solution.
6. The reference and test samples were successively passed through the test chamber using the syringe pump at a flow rate of 15 μl/min. […]
Each data file was retrieved, using TOXANA™, a time series data analysis software program. […] An assessment of the signal baseline mean and variance values (where no peak is detected) was made for each file. […]
The number of peaks with an intensity above Td were calculated for each file, as well as the average peak intensity, the average peak width, and the average peak area.

## CCOP(=S)(OCC)Oc1cc(C)nc(C(C)C)n1 [diazanon]
Exposure to 1 ppm of diazanon, 500 rotifers/ml, FIG. 7B
  feeding rate reduced by a factor (vs control sample): 30
Test sample containing 1 ppm of diazanon, 500 rotifers/ml, 5 minute incubation, FIG. 7B
  ingestion rate per organism: 10^−3 beads/sec
Test sample containing 1 ppm of diazanon, 600 rotifers/ml, FIG. 7C
  feeding rate: less than 0.05 beads/min
